The values below come from patent publication US20220273005A1, “METHOD OF INDUCING BACTERIAL HEAT SENSITIVITY” (THE STATE OF ISRAEL, MINISTRY OF AGRICULTURE & RURAL …, priority 2019, published 2022).

The test system of assay [1] is Bacillus subtilis wt. The following applies: wt strain with Mg2+ ions; previously shown; cited from earlier work.
Assay [2] concerns Bacillus subtilis wt. The following applies: wt strain with Mg2+ ions; previously shown; cited from earlier work. The source holds these as a separate data set.
Assay [3] has as its system B. subtilis (WT 3610). In words: Combined effect of CL and surfactin on pellicle formation, NAO staining. In kind it is cell-based, Bacillus subtilis. As to conditions: high concentration (50 μM), about 20 h, FIG. 6. As to the method: (§1) For visualization of bundle type biofilm a 1 ml sample was taken and washed twice with sterile water. Next Nonyl Acridine Orange (NAO) (Invitrogen A1372) was added to a final concentration of 100 nM for a 20 minutes incubation at room temperature. Next 3-7 μl from each sample were loaded on a microscopy glass slide. The samples were visualized using a fluorescent microscope in a transmitted light microscope using differential interference contrast (DIC) and 426-450 nm laser for CFP excitation (for visualization of YC189) or 457 nm-487 nm laser for GFP excitation (for visualization of NAO stained samples) (Nikon Eclipse Ti2).
B. subtilis (WT 3610) was grown for 5 h at 37° C., 150 rpm according to the conditions described above. Then 2 μl of bacteria were added to 1 ml LBG accompanied by solutions with different concentrations of CL and surfactin. After about 20 h the samples were stained with NAO (according to the protocol described herein), which was added to the unwashed samples. Finally, the samples were washed after the staining and the pellicle formation was tested.

Assay [4] deals with Bacillus subtilis NCIB 3610 pellicle biofilm. In words: Pellicle biofilm formation with CL added to the medium. As to conditions: FIG. 5A. Format: cell-based. On the procedure: Three kinds of biofilms were tested—colony type, pellicle and bundles. For colony type—bacteria were grown in LB medium for 5h and then 3-5 μl of the culture were spotted on an LB-GM (1% tryptone, 0.5% yeast extract, 0.5% NaCl, 1% glycerol, 0.1 mM MnSO4 and 2% agar) (Difco) or modified MRS (MMRS—MRS pH 7) (Man, Rogosa & Sharpe) (Hy-labs) plates. Once the spotted drops were soaked into the medium, the plates were incubated upside down at 30° C. for 72 h. For pellicle biofilm formation 24-well plates were used. Bacteria were grown in LB medium for 5 h and then the culture was diluted 1:1000 into MMRS. […] For the experiments with supplementation of CL, 0-100 μM CL dissolved in chloroform was added (final concentration of chloroform was 0.2%). For bundle type biofilm, a starter culture was prepared using a single bacterial colony inoculated into 5 ml of LB medium overnight at 30° C., 150 rpm. Next, bacteria were diluted 1:100 into fresh MMRS at 37° C., 25 rpm and after 5-7 h a 1 ml sample was taken and washed twice with sterile water. For longer incubation times, a starter culture was prepared using a single bacterial colony inoculated into 3 ml of LB medium for 5 h at 37° C., 150 rpm. Next, bacteria were diluted 1:100 into fresh MMRS at 23° C., 25 rpm overnight. The samples were visualized by fluorescence microscopy.

Assay [5] concerns Bacillus subtilis YC189 (PtapA-cfp) bundle biofilm. In words: Bundle biofilm formation and tapA promoter (PtapA-cfp) activity with CL added, fluorescence microscopy. Format: cell-based. As to the method: (§2) Three kinds of biofilms were tested—colony type, pellicle and bundles. For colony type—bacteria were grown in LB medium for 5h and then 3-5 μl of the culture were spotted on an LB-GM (1% tryptone, 0.5% yeast extract, 0.5% NaCl, 1% glycerol, 0.1 mM MnSO4 and 2% agar) (Difco) or modified MRS (MMRS—MRS pH 7) (Man, Rogosa & Sharpe) (Hy-labs) plates. Once the spotted drops were soaked into the medium, the plates were incubated upside down at 30° C. for 72 h. For pellicle biofilm formation 24-well plates were used. Bacteria were grown in LB medium for 5 h and then the culture was diluted 1:1000 into MMRS. Next, plates were incubated at 30° C., 20 rpm for 48 h. For the experiments with supplementation of CL, 0-100 μM CL dissolved in chloroform was added (final concentration of chloroform was 0.2%). For bundle type biofilm, a starter culture was prepared using a single bacterial colony inoculated into 5 ml of LB medium overnight at 30° C., 150 rpm. Next, bacteria were diluted 1:100 into fresh MMRS at 37° C., 25 rpm and after 5-7 h a 1 ml sample was taken and washed twice with sterile water. For longer incubation times, a starter culture was prepared using a single bacterial colony inoculated into 3 ml of LB medium for 5 h at 37° C., 150 rpm. Next, bacteria were diluted 1:100 into fresh MMRS at 23° C., 25 rpm overnight. The samples were visualized by fluorescence microscopy.
as §1

Assay [6] concerns Bacillus subtilis ΔclsA and ΔclsB mutants. Description: Rescue of the biofilm phenotype of the cls mutants by added CL. Format: cell-based. As to conditions: 10-fold serial dilutions of CL in the medium; data not shown. On the procedure:
as §2, with “microscopy. […]” for “microscopy.”

[7] abbreviates: CL 10 μM and 100 μM, after 12 h, YC189, FIG. 5B.

`[Mg+2]` [Mg^2+ ions]: the “sensitivity to heat treatments” value in assay [1] is recorded as “more sensitive to heat treatments”. Moreover, in assay [2], the biofilm formation result was “biofilm is not formed”.

For the molecule cardiolipin [CL], in assay [3], the “string-like structures connecting the bacteria” value is listed as “string-like structures connecting the bacteria have been observed”. The “biofilm formation (pellicle)” value in assay [4] (CL 50 μM, 18 h post treatment) is recorded as “reduced biofilm formation”. Also, the pellicle biofilm formation result in assay [4] (CL 5-50 μM, after 18 hours) is on record as “delay in pellicle biofilm formation”. Also, in assay [5] (setting [7]), the “biofilm (bundle) formation” value was “biofilm is not formed” and the “stimulation of the tapA operon (PtapA-cfp)” value is recorded as “not stimulated”. For the same molecule, the biofilm formation result in assay [5] (CL 10 μM, after 18 h, YC189, FIG. 5C) is recorded as “substantially reduced”. For the same molecule, the “biofilm (bundle) formation” value in assay [5] (high concentrations of CL, after 18 h, YC189, FIG. 5C) is “bundles start to form”. For the same molecule, the “rescue of the mutants' biofilm phenotype” value in assay [6] is on record as “not able to rescue”.
